Assay: xn = mol fraction of the nth substance listed

N[C@@H](CCC(=O)O)C(=O)O + O
viscosity [mPa·s], 101.3 kPa
Settings	x1 = 0.000207	x1 = 0.00038	x1 = 0.00043	x1 = 0.000542	x1 = 0.000801	x1 = 0.000855	x1 = 0.0012
293.15 K	1.004	1.012	1.007	1.011	1.021	1.019	1.027
298.15 K	0.8955	0.9049	0.8994	0.9025	0.9086	0.9109	0.9194
303.15 K	0.8079	0.8164	0.8109	0.8148	0.8178	0.8217	0.8279
313.15 K	0.6741	0.6803	0.6764	0.6779	0.6818	0.6849	0.6903
323.15 K	0.5787	0.5857	0.581	0.5826	0.5849	0.5864	0.5895

CCCOCCO + CN(C)C=O
298.15 K, 101 kPa
Settings	viscosity [mPa·s]
x1 = 0.0076	0.821
x1 = 0.0172	0.834
x1 = 0.029	0.846
x1 = 0.0502	0.874
x1 = 0.1029	0.948
x1 = 0.1416	0.998
x1 = 0.1927	1.07
x1 = 0.264	1.18
x1 = 0.2944	1.223
x1 = 0.3428	1.289
x1 = 0.3521	1.305
x1 = 0.4414	1.458
x1 = 0.5181	1.582
x1 = 0.5987	1.726
x1 = 0.6457	1.809
x1 = 0.6982	1.895
x1 = 0.7555	1.989
x1 = 0.8533	2.164
x1 = 0.9398	2.308
x1 = 0.9729	2.345

CCCOCCO + OCCOCCOCCOCCO
101 kPa
Settings	viscosity [mPa·s]
293.15 K, x1 = 0.0542	48.17
293.15 K, x1 = 0.1014	43.86
293.15 K, x1 = 0.201	35.31
293.15 K, x1 = 0.3003	27.79
293.15 K, x1 = 0.3986	21.51
293.15 K, x1 = 0.4476	18.81
293.15 K, x1 = 0.5026	16.04
293.15 K, x1 = 0.5513	13.99
293.15 K, x1 = 0.6093	11.77
293.15 K, x1 = 0.6955	9.005
293.15 K, x1 = 0.8069	6.17
293.15 K, x1 = 0.8986	4.294
293.15 K, x1 = 0.9299	3.73
298.15 K, x1 = 0.0471	40.86
298.15 K, x1 = 0.1215	35.33
298.15 K, x1 = 0.2008	29.71
298.15 K, x1 = 0.2987	23.76
298.15 K, x1 = 0.4022	18.52
298.15 K, x1 = 0.4601	16.06
298.15 K, x1 = 0.5018	14.48
298.15 K, x1 = 0.5507	12.73
298.15 K, x1 = 0.5961	11.26
298.15 K, x1 = 0.6975	8.355
298.15 K, x1 = 0.7954	5.941
298.15 K, x1 = 0.9023	3.732
298.15 K, x1 = 0.947	2.996
303.15 K, x1 = 0.0564	32.24
303.15 K, x1 = 0.1139	28.91
303.15 K, x1 = 0.2071	23.96
303.15 K, x1 = 0.304	19.47
303.15 K, x1 = 0.3911	15.98
303.15 K, x1 = 0.4512	13.87
303.15 K, x1 = 0.5003	12.29
303.15 K, x1 = 0.5411	11.08
303.15 K, x1 = 0.5977	9.543
303.15 K, x1 = 0.7007	7.098
303.15 K, x1 = 0.794	5.232
303.15 K, x1 = 0.8948	3.54
303.15 K, x1 = 0.9402	2.883

CCCCC[N+](CC)(CC)CC.O=S(=O)([N-]S(=O)(=O)C(F)(F)F)C(F)(F)F + CCCCC[P+](CC)(CC)CC.O=S(=O)([N-]S(=O)(=O)C(F)(F)F)C(F)(F)F
viscosity [mPa·s], 101.3 kPa
Settings	298.15 K	303.15 K	308.15 K	313.15 K	318.15 K
x1 = 0.2	96.6	75.4	59.8	–	–
x1 = 0.4	–	83.6	65.8	52.7	–
x1 = 0.6	–	94.3	73.6	58.4	–
x1 = 0.8	–	–	83.8	–	52.8

O=P([O-])([O-])[O-].[K+].[K+].[K+] + O
viscosity [mPa·s], 101 kPa
Settings	x1 = 0.0018	x1 = 0.0054	x1 = 0.0089	x1 = 0.012	x1 = 0.016
298.15 K	0.9999	1.068	1.197	1.397	1.648
303.15 K	0.8476	0.9587	1.107	1.268	1.492
308.15 K	0.7639	0.8485	0.9715	1.123	1.341

N#Cc1ccccc1 + Cc1ccccc1
viscosity [mPa·s], 100 kPa
Settings	x1 = 0.1034	x1 = 0.2113	x1 = 0.3332	x1 = 0.409	x1 = 0.5093	x1 = 0.6337	x1 = 0.7569	x1 = 0.879
303 K	0.5391	0.5612	0.6226	0.6592	0.7016	0.7812	0.8795	0.9682
308 K	0.5099	0.5348	0.6121	0.6589	0.7285	0.7989	0.8621	0.9325
313 K	0.5068	0.5399	0.5908	0.6325	0.6985	0.7545	0.8319	0.8819

CCCOCCO + CCCO
298.15 K, 101.33 kPa
Settings	viscosity [mPa·s]
x1 = 0.0085	1.95
x1 = 0.0212	1.945
x1 = 0.0386	1.944
x1 = 0.0573	1.944
x1 = 0.0817	1.943
x1 = 0.0917	1.942
x1 = 0.1295	1.944
x1 = 0.157	1.948
x1 = 0.2095	1.961
x1 = 0.2715	1.976
x1 = 0.323	1.994
x1 = 0.3675	2.01
x1 = 0.4185	2.031
x1 = 0.4527	2.046
x1 = 0.5174	2.072
x1 = 0.5743	2.103
x1 = 0.6243	2.125
x1 = 0.6804	2.151
x1 = 0.7324	2.186
x1 = 0.7821	2.219
x1 = 0.853	2.257
x1 = 0.9063	2.294
x1 = 0.9599	2.326

From the CheMixHub viscosity set
